From article PMC5002989 (Bioorganic & medicinal chemistry letters, 2016)
Where two headings read alike, the source gives them in different places.

Assays:
[1] = Experimental water solubility, thermodynamic solubility method; format: physicochemical; conditions: for solubility: water, Experimentally determined water solubility of the hydrochloride salt
[2] = target: VMAT2 (Rattus norvegicus, UniProt Q01827); assay: [3H]DA uptake at VMAT2 in rat striatal vesicle preparations; format: biochemical
[3] = target: hERG channel (Homo sapiens, UniProt Q12809); assay: biochemical
Chain of hERG channel (Q12809 whole entry): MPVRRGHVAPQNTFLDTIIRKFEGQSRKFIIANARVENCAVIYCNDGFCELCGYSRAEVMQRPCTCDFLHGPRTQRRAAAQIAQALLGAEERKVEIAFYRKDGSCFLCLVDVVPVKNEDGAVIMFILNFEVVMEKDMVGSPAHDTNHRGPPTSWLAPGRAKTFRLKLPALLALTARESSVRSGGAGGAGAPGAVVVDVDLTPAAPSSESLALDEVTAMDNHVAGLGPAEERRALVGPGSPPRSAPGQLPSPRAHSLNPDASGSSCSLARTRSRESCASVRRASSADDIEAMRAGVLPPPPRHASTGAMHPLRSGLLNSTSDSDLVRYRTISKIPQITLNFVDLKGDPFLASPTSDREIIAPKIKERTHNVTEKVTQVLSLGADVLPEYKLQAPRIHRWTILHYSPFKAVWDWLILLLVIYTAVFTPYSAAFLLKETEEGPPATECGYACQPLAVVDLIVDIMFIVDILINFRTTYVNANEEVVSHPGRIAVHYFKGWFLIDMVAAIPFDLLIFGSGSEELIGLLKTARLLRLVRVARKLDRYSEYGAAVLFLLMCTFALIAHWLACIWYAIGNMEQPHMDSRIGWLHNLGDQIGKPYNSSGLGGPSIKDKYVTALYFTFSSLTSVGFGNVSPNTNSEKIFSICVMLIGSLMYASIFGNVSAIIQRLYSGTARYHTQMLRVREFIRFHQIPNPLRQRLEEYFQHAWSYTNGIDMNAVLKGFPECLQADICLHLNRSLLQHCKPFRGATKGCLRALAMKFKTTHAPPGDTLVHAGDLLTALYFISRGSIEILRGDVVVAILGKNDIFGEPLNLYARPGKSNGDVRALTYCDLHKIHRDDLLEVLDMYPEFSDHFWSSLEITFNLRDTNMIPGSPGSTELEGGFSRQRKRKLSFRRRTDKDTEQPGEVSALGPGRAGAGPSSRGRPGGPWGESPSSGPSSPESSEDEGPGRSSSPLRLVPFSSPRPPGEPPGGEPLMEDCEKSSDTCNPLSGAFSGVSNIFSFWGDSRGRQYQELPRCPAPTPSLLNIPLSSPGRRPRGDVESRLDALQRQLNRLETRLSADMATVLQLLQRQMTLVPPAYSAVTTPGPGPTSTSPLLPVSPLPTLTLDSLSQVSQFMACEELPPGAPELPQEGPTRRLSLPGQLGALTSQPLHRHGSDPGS

Chain of VMAT2 (Q01827 whole entry): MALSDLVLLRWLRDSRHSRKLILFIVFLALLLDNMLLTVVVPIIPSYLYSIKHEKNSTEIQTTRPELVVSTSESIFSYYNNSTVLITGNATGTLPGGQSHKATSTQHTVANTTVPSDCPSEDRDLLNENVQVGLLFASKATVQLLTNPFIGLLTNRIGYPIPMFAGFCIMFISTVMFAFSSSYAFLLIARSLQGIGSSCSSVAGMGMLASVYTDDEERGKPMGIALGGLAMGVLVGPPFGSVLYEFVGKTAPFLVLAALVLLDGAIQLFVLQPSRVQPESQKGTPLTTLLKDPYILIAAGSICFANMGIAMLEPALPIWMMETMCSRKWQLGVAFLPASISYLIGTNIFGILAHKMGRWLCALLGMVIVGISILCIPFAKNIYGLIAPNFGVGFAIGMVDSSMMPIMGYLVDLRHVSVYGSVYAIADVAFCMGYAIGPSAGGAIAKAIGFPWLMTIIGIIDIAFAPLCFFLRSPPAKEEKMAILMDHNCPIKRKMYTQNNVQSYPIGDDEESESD

COc1ccccc1CCN1CCN(CCc2ccccc2OC)CC1.Cl.Cl [Compound 6b]
Experimentally determined water solubility of the hydrochloride salt ([1]; listed as C00014): 25.0 mg/mL | solubility [1]: 33.3 mg/mL

Cl.Cl.Clc1ccccc1CCN1CCN(CCc2ccccc2Cl)CC1 [Compound 6e]
Experimentally determined water solubility of the hydrochloride salt ([1]; listed as C00020): 13.5 mg/mL | solubility [1]: 25 mg/mL

Cl.Cl.Fc1ccc(CCN2CCN(CCc3ccc(F)cc3)CC2)cc1 [Compound 6f]
[3H]DA uptake Ki in comparison to lobelane [2]: not different from lobelane

COc1ccccc1CCN1CCN(CCc2ccccc2)CC1.Cl.Cl [Compound 9a]
Experimentally determined water solubility of the hydrochloride salt [1]: 13.5 mg/mL | Experimentally determined water solubility of the hydrochloride salt ([1]; listed as C00004): 33.3 mg/mL

CN1[C@@H](CCc2ccccc2)CCC[C@H]1CCc1ccccc1 [Lobelane (2), lobelane]
Ki [3]: 238 ± 38.9 nM
